This assay addresses T1, Recombinant human HSD17B13 enzyme (Homo sapiens, UniProt Q7Z5P4).
T1 sequence (Q7Z5P4 20-300): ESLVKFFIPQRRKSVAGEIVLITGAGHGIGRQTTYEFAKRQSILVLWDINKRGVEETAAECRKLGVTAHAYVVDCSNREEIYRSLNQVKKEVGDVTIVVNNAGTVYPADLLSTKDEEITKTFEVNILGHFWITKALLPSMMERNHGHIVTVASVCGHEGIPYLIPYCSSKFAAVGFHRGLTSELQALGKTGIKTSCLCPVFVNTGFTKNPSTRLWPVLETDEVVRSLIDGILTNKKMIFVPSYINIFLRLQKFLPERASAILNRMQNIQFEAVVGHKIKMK
The assay is described as follows: HSD17b13 NAD(P)H-Glo biochemical assay. The following applies: for IC50: 50 uM estradiol, 1 mM NAD+, NAD(P)H-Glo luminescence, read-out: HSD17β13 IC50; for inhibition at 10 µM: 3 h, read-out: HSD17β13 % at 10 uM. As for the experimental part:
Example B-1: HSD17b13 NAD(P)H-Glo Biochemical Assay
Recombinant human HSD17B13 enzyme. Substrate: estradiol (Sigma β-Estradiol E8875), 100 mM in DMSO. Cofactor: NAD+ Grade I free acid (Sigma 10127965001), 20 mM in H2O. Assay buffer final concentration: 20 mM Tris pH7.4 with 0.002% Tween-20 and 0.02% BSA. Assay performed in 384 well solid bottom plate (Corning 3570). Enzymatic activity detected by NAD(P)H-Glo™ Detection System (Promega G9062).
Inhibitor compounds were serially diluted in DMSO and then further diluted in assay buffer to a 10× concentration consisting of 1% DMSO.
HSD17b13 enzyme was diluted in 1× assay buffer to the desired enzyme concentration based on the specific activity of the enzyme lot. 20 uL of diluted enzyme was added to each well along with 2.5 uL of 10× inhibitor solution. Assay plate was incubated at RT for 20 minutes, and then 2.5 uL of a 10× substrate/cofactor mix was added to each well for a final concentration of 50 uM estradiol and 1 mM NAD+. Assay plate was incubated at 37° C. for 3 hours. NAD(P)H-Glo™ Detection System reagents were prepared according to manufacturer's specifications, and 25 uL was added to each well. After incubating for 1 hour at RT, luminescence was measured.

These results are taken from US20240083853A1, “HSD17B13 INHIBITORS AND USES THEREOF” (FL2022-001, Inc., priority 2020, published 2024).

The structures appear in SMILES notation. Counter-ions that a name gives are not always drawn. Like-named read-outs stand apart in the source and are kept apart here.

A word on the IC50: it is the concentration that inhibits the measured activity by half. With `COC1CCN(c2ccc(-n3ncc4cc(F)c(O)c(F)c43)cc2)C1` (stereo not shown) [Compound 22.5, 5,7-Difluoro-1-(4-(3-methoxypyrrolidin-1-yl)phenyl)-1H-indazol-6-ol], the IC50 is below 100 nM.

As for `Oc1ccc(-c2ccc(-n3ncc4cc(F)c(O)cc43)nc2)cc1` [Compound 15.3, 5-Fluoro-1-(5-(4-hydroxyphenyl)pyridin-2-yl)-1H-indazol-6-ol], the 50% inhibitory concentration (IC50) was 100 to 1000 nM.

Take `COCC1(C)CCN(c2ccc(-n3ncc4cc(F)c(O)c(F)c43)cc2)CC1` [Compound 20.18, 5,7-Difluoro-1-(4-(4-(methoxymethyl)-4-methylpiperidin-1-yl)phenyl)-1H-indazol-6-ol]: the IC50 was below 100 nM.

Consider `Oc1cc2c(cnn2-c2ccc(-c3ccccc3O)cc2)cc1F` [Compound 13.2, 5-Fluoro-1-(2′-hydroxy-[1,1′-biphenyl]-4-yl)-1H-indazol-6-ol], for which the half-inhibitory concentration (IC50) was 100 to 1000 nM.

Turning to `O=C(O)c1cccc(-c2ccc(-n3ncc4cc(F)c(O)cc43)cc2)c1` [Compound 13.29, 4′-(5-Fluoro-6-hydroxy-1H-indazol-1-yl)-[1,1′-biphenyl]-3-carboxylic acid], the IC50 fell in the range of 1000 to 30000 nM.

In the case of `CC1(C)CCN(c2cnc(-n3ncc4cc(F)c(O)c(F)c43)nc2)CC1` [Compound 26.8, 1-(5-(4,4-Dimethylpiperidin-1-yl)pyrimidin-2-yl)-5,7-difluoro-1H-indazol-6-ol], the IC50 was in the range of 100 to 1000 nM.

As to `CC(C)S(=O)(=O)N1CCN(c2ccc(-n3ncc4cc(F)c(O)c(F)c43)cc2)CC1` [Compound 23.9, 5,7-Difluoro-1-(4-(4-(isopropylsulfonyl)piperazin-1-yl)phenyl)-1H-indazol-6-ol], the IC50 is 100 to 1000 nM.

As to `N#Cc1ccc(-c2ccc(-n3ncc4cc(F)c(O)c(F)c43)cc2)cn1` [Compound 14, 5-(4-(5,7-Difluoro-6-hydroxy-1H-indazol-1-yl)phenyl)picolinonitrile], the IC50 was below 100 nM.

For the compound `CS(=O)(=O)N1CCN(c2ccc(-n3ncc4cc(F)c(O)c(F)c43)cc2Cl)CC1` [Compound 19.1, 1-(3-Chloro-4-(4-(methylsulfonyl)piperazin-1-yl)phenyl)-5,7-difluoro-1H-indazol-6-ol], the IC50 is below 100 nM.

With `CS(=O)(=O)N1CC2(CN(c3ccc(-n4ncc5cc(F)c(O)c(F)c54)cc3)C2)C1` [Compound 20.23, 5,7-Difluoro-1-(4-(6-(methylsulfonyl)-2,6-diazaspiro[3.3]heptan-2-yl)phenyl)-1H-indazol-6-ol], the concentration for half-maximal inhibition (IC50) lay in the range of 100 to 1000 nM.

`CS(=O)(=O)Nc1ccc(-c2ccc(-n3ncc4cc(F)c(O)cc43)cc2)cc1` [Compound 13.34, N-(4′-(5-Fluoro-6-hydroxy-1H-indazol-1-yl)-[1,1′-biphenyl]-4-yl)methanesulfonamide]: the half-maximal inhibitory concentration (IC50) was in the range of 100 to 1000 nM.

On to `CCC1(C)CCN(c2ccc(-n3ncc4cc(F)c(O)c(F)c43)cc2)CC1` [Compound 24.5, 1-(4-(4-Ethyl-4-methylpiperidin-1-yl)phenyl)-5,7-difluoro-1H-indazol-6-ol], for which the IC50 was below 100 nM.

`CC1CN(c2ccc(-n3ncc4cc(F)c(O)c(F)c43)cc2)CC(C)[S+]1[O-]` (stereo not shown) [Compound 32.3, 4-(4-(5,7-Difluoro-6-hydroxy-1H-indazol-1-yl)phenyl)-2,6-dimethylthiomorpholine 1-oxide]: the IC50 was in the range of 100 to 1000 nM.

`CS(=O)(=O)N1CCN(c2ccc(-n3nnc4cc(F)c(O)c(F)c43)cc2)CC1` [Compound 21.3, 5,7-Difluoro-1-(4-(4-(methylsulfonyl)piperazin-1-yl)phenyl)-1H-benzo[d][1,2,3]triazol-6-ol]: the half-maximal inhibitory concentration (IC50) was below 100 nM.

With `CS(=O)(=O)N1CCN(c2ccc(-n3ncc4cc(F)c(O)nc43)cc2)CC1` [Compound 25.3, 5-Fluoro-1-(4-(4-(methylsulfonyl)piperazin-1-yl)phenyl)-1H-pyrazolo[3,4-b]pyridin-6-ol], the inhibition at 10 µM (at 10 uM compound) amounted to 35%.

For the compound `Oc1cccc(-c2ccc(-n3ncc4cc(Cl)c(O)cc43)cc2)c1` [Compound 2.6, 5-Chloro-1-(3′-hydroxy-[1,1′-biphenyl]-4-yl)-1H-indazol-6-ol], the 50% inhibitory concentration (IC50) was 1000 to 30000 nM.

For the compound `CS(=O)(=O)Nc1cccc(-c2ccc(-n3ncc4cc(F)c(O)cc43)cc2)c1` [Compound 13.33, N-(4′-(5-Fluoro-6-hydroxy-1H-indazol-1-yl)-[1,1′-biphenyl]-3-yl)methanesulfonamide], the IC50 was in the range of 1000 to 30000 nM.

With `Oc1c(F)cc2cnn(-c3ccc(N4CCSCC4)cc3)c2c1F` [Compound 23.4, 5,7-Difluoro-1-(4-thiomorpholinophenyl)-1H-indazol-6-ol], the half-maximal inhibitory concentration (IC50) was below 100 nM.

`Cc1cc(-n2ncc3cc(F)c(O)c(F)c32)ccc1N1CCN(S(C)(=O)=O)CC1` [Compound 20.3, 5,7-Difluoro-1-(3-methyl-4-(4-(methylsulfonyl)piperazin-1-yl)phenyl)-1H-indazol-6-ol]: the IC50 is below 100 nM.

For the compound `N#Cc1ccccc1-c1ccc(-n2ncc3cc(F)c(O)cc32)cc1` [Compound 13.16, 4′-(5-Fluoro-6-hydroxy-1H-indazol-1-yl)-[1,1′-biphenyl]-2-carbonitrile], the half-inhibitory concentration (IC50) was in the range of 100 to 1000 nM.

`N#CC1CCN(c2ccc(-n3ncc4cc(F)c(O)c(F)c43)cc2)CC1` [Compound 22, 1-(4-(5,7-Difluoro-6-hydroxy-1H-indazol-1-yl)phenyl)piperidine-4-carbonitrile]: the IC50 is below 100 nM.

Take `CC1(C#N)CCN(c2ccc(-n3ncc4cc(F)c(O)c(F)c43)cc2)CC1` [Compound 23.21, 1-(4-(5,7-Difluoro-6-hydroxy-1H-indazol-1-yl)phenyl)-4-methylpiperidine-4-carbonitrile]: the IC50 was below 100 nM.

Take `Oc1ccc(-c2ccc(-n3nnc4cc(F)c(O)cc43)cc2)cc1` [Compound 10, 5-Fluoro-1-(4′-hydroxy-[1,1′-biphenyl]-4-yl)-1H-benzo[d][1,2,3]triazol-6-ol]: the IC50 was below 100 nM.

For the compound `CS(=O)(=O)NC1CCN(c2ccc(-n3ncc4cc(F)c(O)c(F)c43)cc2)CC1` [Compound 23.17, N-(1-(4-(5,7-Difluoro-6-hydroxy-1H-indazol-1-yl)phenyl)piperidin-4-yl)methanesulfonamide], the 50% inhibitory concentration (IC50) was 100 to 1000 nM.

`Oc1cccc(-c2ccc(-n3ncc4cc(F)c(O)cc43)cc2)c1` [Compound 2, 5-Fluoro-1-(3′-hydroxy-[1,1′-biphenyl]-4-yl)-1H-indazol-6-ol]: the IC50 is 100 to 1000 nM.

For `CN1CCC(c2ccc(-n3ncc4cc(F)c(O)c(F)c43)cc2)CC1` [Compound 27.10, 5,7-Difluoro-1-(4-(1-methylpiperidin-4-yl)phenyl)-1H-indazol-6-ol], the IC50 is 100 to 1000 nM.

For `Oc1c(F)cc2cnn(-c3ccc(N4CCC5(CCO5)CC4)cc3)c2c1F` [Compound 26.1, 1-(4-(1-Oxa-7-azaspiro[3.5]nonan-7-yl)phenyl)-5,7-difluoro-1H-indazol-6-ol], the half-maximal inhibitory concentration (IC50) was in the range of 100 to 1000 nM.

For the compound `CC1(C)CCN(c2ccc(N3C(=O)C(=O)c4cc(F)c(O)c(F)c43)cc2)CC1` [Compound 7.2, 1-(4-(4,4-Dimethylpiperidin-1-yl)phenyl)-5,7-difluoro-6-hydroxyindoline-2,3-dione], the concentration for half-maximal inhibition (IC50) fell in the range of 100 to 1000 nM.

Regarding `CC1(C)CCN(c2ccc(N3C(=O)C(O)c4cc(F)c(O)c(F)c43)cc2)CC1` (stereo not shown) [Compound 35, 1-(4-(4,4-Dimethylpiperidin-1-yl)phenyl)-5,7-difluoro-3,6-dihydroxyindolin-2-one hydrochloride], the inhibition at 10 µM was below 20%.

As for `CC1(C)CCN(c2ccc(-n3cnc4cc(F)c(O)cc43)cc2)CC1` [Compound 21.10, 1-(4-(4,4-Dimethylpiperidin-1-yl)phenyl)-5-fluoro-1H-benzo[d]imidazol-6-ol], under “at 10 uM compound”, the inhibition at 10 µM is 35%.

On to `CC1(CO)CCN(c2ccc(-n3ncc4cc(F)c(O)c(F)c43)cc2)CC1` [Compound 20.17, 5,7-Difluoro-1-(4-(4-(hydroxymethyl)-4-methylpiperidin-1-yl)phenyl)-1H-indazol-6-ol], for which the IC50 lay within 100 to 1000 nM.

With `CC1(C)CCN(c2ncc(-n3ncc4cc(F)c(O)c(F)c43)cn2)CC1` [Compound 6.1, 1-(2-(4,4-Dimethylpiperidin-1-yl)pyrimidin-5-yl)-5,7-difluoro-1H-indazol-6-ol], the IC50 was below 100 nM.

For the compound `CC1(C)CCN(c2ccc(-n3nnc4cc(F)c(O)c(F)c43)nc2)CC1` [Compound 26.14, 1-(5-(4,4-Dimethylpiperidin-1-yl)pyridin-2-yl)-5,7-difluoro-1H-benzo[d][1,2,3]triazol-6-ol], the IC50 is below 100 nM.

Consider `Oc1ccc(-c2ccc(-n3ncc4cc(F)c(O)cc43)cn2)cc1` [Compound 15.2, 5-Fluoro-1-(6-(4-hydroxyphenyl)pyridin-3-yl)-1H-indazol-6-ol], for which the IC50 was in the range of 100 to 1000 nM.
